Measurements as given in article PMC9060532 (RSC Advances, 2019).

Experiments:
[1] = Stability of bornyl caffeate and caffeic acid in rat plasma; format: in vitro ADME; conditions: for Autosampler stability Concentration measured / Autosampler stability Stability (%): processed rat plasma QC, autosampler 20 °C 24 h; for Autosampler stability Concentration measured / Autosampler stability Stability (%) / Short-term Concentration measured / Short-term Stability (%) / Freeze–thaw Concentration measured / Freeze–thaw Stability (%) / Long-term Concentration measured / Long-term Stability (%): n = 6; for Short-term Concentration measured / Short-term Stability (%) / Freeze–thaw Concentration measured / Freeze–thaw Stability (%) / Long-term Concentration measured / Long-term Stability (%): rat plasma; for Short-term Concentration measured / Short-term Stability (%): room temperature 24 h; for Freeze–thaw Concentration measured / Freeze–thaw Stability (%): three freeze–thaw cycles (−20 °C 24 h); for Long-term Concentration measured / Long-term Stability (%): −20 °C 3 weeks
[2] = Pharmacokinetic study in rats, plasma by HPLC-Ion-Trap-MS/MS; format: in vivo, Sprague-Dawley rats
[3] = Metabolite identification in rat plasma, urine and feces by HPLC-Q-TOF MS/MS; format: in vivo, Sprague-Dawley rats; conditions: rats, bornyl caffeate ig 30 mg kg^−1; p plasma, u urine, f feces
[4] = CA in rat plasma after CA ig 17 mg kg^−1, n = 6
[5] = Sprague-Dawley, rat, plasma, po, 17 mg/kg

## O=C(O)/C=C/c1ccc(O)c(O)c1 [Caffeic acid]
[1]; 4 ng mL^−1 added
  Autosampler stability Concentration measured: 3.93 ± 0.16 ng/mL
  Autosampler stability Stability (%): 98.25%
  Short-term Concentration measured: 3.97 ± 0.15 ng/mL
  Short-term Stability (%): 99.38%
  Freeze–thaw Concentration measured: 3.77 ± 0.14 ng/mL
  Freeze–thaw Stability (%): 94.29%
  Long-term Concentration measured: 4.03 ± 0.18 ng/mL
  Long-term Stability (%): 100.79%
[1]; 200 ng mL^−1 added
  Autosampler stability Concentration measured: 191.9 ± 6.19 ng/mL
  Autosampler stability Stability (%): 95.95%
  Short-term Concentration measured: 196.41 ± 4.57 ng/mL
  Short-term Stability (%): 98.2%
  Freeze–thaw Concentration measured: 202.1 ± 6.48 ng/mL
  Freeze–thaw Stability (%): 101.05%
  Long-term Concentration measured: 197.22 ± 6.86 ng/mL
  Long-term Stability (%): 98.61%
[1]; 3000 ng mL^−1 added
  Autosampler stability Concentration measured: 2991.17 ± 12.48 ng/mL
  Autosampler stability Stability (%): 99.7%
  Short-term Concentration measured: 3009.81 ± 6.45 ng/mL
  Short-term Stability (%): 100.33%
  Freeze–thaw Concentration measured: 2835.08 ± 9.86 ng/mL
  Freeze–thaw Stability (%): 94.23%
  Long-term Concentration measured: 2990.99 ± 4.97 ng/mL
  Long-term Stability (%): 99.7%
[1]; room temperature for 24 h, −20 °C for 3 weeks, or autosampler for 24 h
  stability in plasma (in words): stable
[2]; [4]
  T 1/2Ka: 7.2 ± 1.8 min
  T 1/2α1: 24 ± 5.4 min
[2]; [5]
  AUC(0-inf): 821 ± 86.2 ng·h/mL
  AUC(0-t): 787 ± 80.3 ng·h/mL
  Cmax: 450 ± 13.8 ng/mL
  Tmax: 15 ± 0.6 min

## O=C(O)CCc1ccc(O)c(O)c1 [M4, Dihydrocaffeic acid]
[3]
  Location (samples in which parent or metabolite was detected): observed in all the three kinds of samples

## O=C(O)c1ccccc1 [M8, Benzoic acid]
[3]
  Location (samples in which parent or metabolite was detected): urine and feces

## COc1cc(CCC(=O)O)ccc1O [M9a, Dihydroferulic acid]
[3]
  Location (samples in which parent or metabolite was detected): found in rat feces alone

## COc1ccc(/C=C/C(=O)O)cc1O [M14b, Isoferulic acid]
[3]
  Location (samples in which parent or metabolite was detected): observed in all the three kinds of samples
